Source: patent publication US20170304317A1, “DIETARY S[…] MUSCLE GROWTH AND STRENGTH” (priority 2015, published 2017)

Columns and labels:
[1] = cited from earlier work
[2] = via conversion to 4-androstenediol; stated as well known; cited from earlier work
[3] = regular (non-esterified) 19 Nor-DHEA; cited from earlier work
[4] = Bioavailability / half-life of 19 Nor-DHEA forms; type: in vivo; conditions: compared with regular 19 Nor-DHEA

C[C@]12C=CC(O)CC1CC[C@@H]1[C@@H]2CC[C@]2(C)C(=O)CC[C@@H]12 (some centres unmarked) [1-DHEA]
conversion rate to 1-testosterone ([1]; stated as generally known): less than 2%

C[C@]12CC[C@H](O)C=C1CC[C@@H]1[C@@H]2CC[C@]2(C)C(=O)CC[C@@H]12 [4-DHEA]
anabolic potency compared with regular DHEA [2]: more than two times greater

C[C@]12CC[C@H]3[C@@H](CC=C4C[C@@H](O)CC[C@@H]43)[C@@H]1CCC2=O [19 Nor-DHEA]
half-life [3]: very short half-life

C[C@]12CC[C@H](O)CC1=CC[C@@H]1[C@@H]2CC[C@]2(C)C(=O)CC[C@@H]12 [DHEA, dehydroepiandrosterone]
conversion rate to testosterone ([1]; stated as well known): ~1%

CCCCCCC(=O)O[C@@H]1C=C2CC[C@@H]3[C@H](CC[C@]4(C)C(=O)CC[C@@H]34)[C@H]2CC1 [enanthated 19 Nor-DHEA, 3b-enanthoxy-19-nor-androst-4-ene-17-one]
bioavailability [4]: improved bioavailability
